Laboratory results: publication PMC7579403, “POTN: A Human Leukocyte Antigen-A2 Immunogenic Peptides Screening Model and Its Applications in Tumor Antigens Prediction” (Frontiers in Immunology, 2020)

Experiments:
HLA-A2 molecule = target: T1, HLA-A2 molecule (Homo sapiens, UniProt P04439, D140Y/D185E/D98H/E176V/E277Q/G131W/G231S/I119V/I121R/I166T/I218V/L300P/L318F/N151K/N90K/P208A/P217A/Q86G/Q94H/R138H/R169H/T345S); assay: T2 binding assay (fluorescence index, FI); settings: T2 cells, peptide 50 μg/mL, human β2-microglobulin 3 µg/mL, 37°C 18 h, anti-HLA-A2 BB7.2 PE-cy7, flow cytometry; class by FI
T1 construct: The T2 cell line (HLA-A2) was supplied by Professor Yuzhang Wu; endogenous in cells; host or cells: T2 cell line (HLA-A2); exogenous human β2-microglobulin from Merck
Procedure: The T2 binding assay was used to determine the binding affinity of the candidate peptides and HLA-A2 molecule by using a previously described protocol ([27]). The T2 cell line (HLA-A2) was supplied by Professor Yuzhang Wu (Third Military Medical University, Chongqing, China). […] The T2 cells were washed twice and incubated with the anti-human HLA-A2-PE-cy7 antibody (BB7.2, eBioscience, USA) at 4°C for 30 min. The mean fluorescence intensity (FI) of each group was analyzed by flow cytometry (FACSCalibur, Becton-Dickinson, USA). Based on the FI, the binding affinity of the candidate peptides toward HLA-A2 molecule was calculated by FI =a−b/b where a is the mean PE-cy7 FI with the peptide and b is the mean PE-cy7 FI without the peptide.

[1] = tested on: CD3+CD8+ T cells from HLA-A2+ healthy donors; assay: ICS assay for immunogenicity: IFN-γ production of CD3+CD8+ T cells from peptide-stimulated PBMCs; format: cell-based, human; settings: for Immunogenicity: response ratio of each peptide in five donors: percentages of IFN-γ+-secreting CD8+ T cells higher than negative control, PBMCs stimulated 10 μg/mL once-weekly 3 weeks
Procedure: We determined whether the high-binding affinity peptides elicited a T cell response in peripheral blood samples from five HLA-A2^+ healthy donors. The blood samples were obtained from Henan Red Cross Blood Center (Zhengzhou, China) with the approval of the Institutional Ethics Review Board. All research was performed under the approval of the Ethics Committee of Zhengzhou University. An ICS assay was used to quantify IFN-γ production of CD3^+CD8^+ T cells. Peripheral blood mononuclear cells (PBMCs) were stimulated by each peptide (10 μg/mL) once-weekly for 3 weeks according to our previous work ([59]). On day 21, the induced T cells from the PBMCs were used as effector cells, and T2 cells were incubated with the synthesized peptides (50 μg/mL) for 4 h as the stimulator cells. The effector cells (1 × 10^6) and stimulator cells (1 × 10^6) were co-incubated for 3 h, and brefeldin A (2 μg/mL, Sigma-Aldrich, USA) was added to block the release of produced cytokines for another 5 h at 37°C and 5% CO2. The cells were washed and stained with eFlour 710 labeled anti-human CD3 antibody and APC-labeled anti-human CD8 antibody (eBioscience) for 30 min at 4°C before fixation and permeabilization. Permeabilized cells were intracellularly stained with the PE-labeled anti-human IFN-γ antibody (BioLegend, Inc., USA) for 30 min on ice in the dark. Cells were resuspended in buffer for acquisition and analysis using a flow cytometer (FACSCalibur, Becton Dickinson).
Next, we examined the T cell responses of the 13 synthesized peptides with high binding affinity by detecting the percentages of IFN-γ^+ CD8^+ T cells from five HLA-A2^+ healthy donors. A higher percentage of IFN-γ^+ CD8^+ T cells in the total CD8^+ T cell population than that of the negative control indicated an immunogenic peptide. In donor 1, 12 were immunogenic ( Figure 5B ); in donor 2, eight peptides were immunogenic ( Figure 5C ); in donor 3, 10 peptides were immunogenic ( Figure 5D ); in donor 4, six peptides were immunogenic ( Figure 5E ); and in donor 5, 12 peptides were immunogenic ( Figure 5F ). […] In other words, any of the 13 high-affinity peptides could stimulate a T lymphocyte response in at least one donor ( Figures 5G, H ).

T cell response = tested on: T cell response; design: method as in PMID 29720506, PMID 15564450, PMID 18753217, PMID 21883919, PMID 11984506; settings: pairs with only one amino acid different at P3; ref [62]–[66]; cited from earlier work

## ALDEKVAEL [CT-X candidate nonamer predicted by POTN, synthesized]
HLA-A2 molecule
  Binding: ++ (FI ≥ 1.5)
[1]
  Immunogenicity: response ratio of each peptide in five donors: 4/5

## ALSTVLPGL [CT-X candidate nonamer predicted by POTN, synthesized]
HLA-A2 molecule
  Binding: ++ (FI ≥ 1.5)
[1]
  Immunogenicity: response ratio of each peptide in five donors: 2/5

## ALSVMGVYV [CT-X candidate nonamer predicted by POTN, synthesized]
HLA-A2 molecule
  Binding: + (FI ≥ 0.5 to < 1.5)

## AMASASPSV [CT-X candidate nonamer predicted by POTN, synthesized]
HLA-A2 molecule
  Binding: ++ (FI ≥ 1.5)
[1]
  Immunogenicity: response ratio of each peptide in five donors: 3/5

## EVKEKHEFL [literature peptide of a P3 pair]
T cell response
  Immunogenicity (immunogenic / non-immunogenic): immunogenic

## EVREKHEFL [literature peptide of a P3 pair]
T cell response
  Immunogenicity (immunogenic / non-immunogenic): non-immunogenic

## FIDKLVESV [CT-X candidate nonamer predicted by POTN, synthesized]
HLA-A2 molecule
  Binding: ++ (FI ≥ 1.5)
[1]
  Immunogenicity: response ratio of each peptide in five donors: 5/5

## FLAKLNNTV [CT-X candidate nonamer predicted by POTN, synthesized; also in training set]
HLA-A2 molecule
  Binding: + (FI ≥ 0.5 to < 1.5)

## FLAMLKNTV [CT-X candidate nonamer predicted by POTN, synthesized]
HLA-A2 molecule
  Binding: + (FI ≥ 0.5 to < 1.5)

## FLSKLSSII [CT-X candidate nonamer predicted by POTN, synthesized]
HLA-A2 molecule
  Binding: - (FI < 0.5)

## ILDRANQSV [CT-X candidate nonamer predicted by POTN, synthesized]
HLA-A2 molecule
  Binding: ++ (FI ≥ 1.5)
[1]
  Immunogenicity: response ratio of each peptide in five donors: 3/5

## KLSSIIPSA [CT-X candidate nonamer predicted by POTN, synthesized]
HLA-A2 molecule
  Binding: ++ (FI ≥ 1.5)
[1]; IFN-γ+ CD8+ T cells, five HLA-A2+ healthy donors
  T cell response in donors: only elicited a response in donor 5
[1]
  Immunogenicity: response ratio of each peptide in five donors: 1/5

## KMAGELIKI [CT-X candidate nonamer predicted by POTN, synthesized]
HLA-A2 molecule
  Binding: ++ (FI ≥ 1.5)
[1]
  Immunogenicity: response ratio of each peptide in five donors: 4/5

## KVADLIHFL [CT-X candidate nonamer predicted by POTN, synthesized]
HLA-A2 molecule
  Binding: + (FI ≥ 0.5 to < 1.5)

## KVAELVHFL [CT-X candidate nonamer predicted by POTN, synthesized]
HLA-A2 molecule
  Binding: + (FI ≥ 0.5 to < 1.5)

## KVAKLVHFL [CT-X candidate nonamer predicted by POTN, synthesized]
HLA-A2 molecule
  Binding: + (FI ≥ 0.5 to < 1.5)

## LMDVQIPTA [CT-X candidate nonamer predicted by POTN, synthesized]
HLA-A2 molecule
  Binding: ++ (FI ≥ 1.5)
[1]
  Immunogenicity: response ratio of each peptide in five donors: 5/5

## QLCDVMFYL [literature peptide of a P3 pair]
T cell response
  Immunogenicity (immunogenic / non-immunogenic): immunogenic

## QLRDVMFYL [literature peptide of a P3 pair]
T cell response
  Immunogenicity (immunogenic / non-immunogenic): non-immunogenic

## SIDDLSFYV [CT-X candidate nonamer predicted by POTN, synthesized]
HLA-A2 molecule
  Binding: ++ (FI ≥ 1.5)
[1]
  Immunogenicity: response ratio of each peptide in five donors: 4/5

## TLDEKVAEL [CT-X candidate nonamer predicted by POTN, synthesized]
HLA-A2 molecule
  Binding: ++ (FI ≥ 1.5)
[1]
  Immunogenicity: response ratio of each peptide in five donors: 5/5

## TLDQVLDEV [CT-X candidate nonamer predicted by POTN, synthesized]
HLA-A2 molecule
  Binding: ++ (FI ≥ 1.5)
[1]
  Immunogenicity: response ratio of each peptide in five donors: 5/5

## VLSAVTPEL [CT-X candidate nonamer predicted by POTN, synthesized]
HLA-A2 molecule
  Binding: + (FI ≥ 0.5 to < 1.5)

## VLSNVLSGL [CT-X candidate nonamer predicted by POTN, synthesized]
HLA-A2 molecule
  Binding: + (FI ≥ 0.5 to < 1.5)

## VLSTAPPQL [CT-X candidate nonamer predicted by POTN, synthesized]
HLA-A2 molecule
  Binding: ++ (FI ≥ 1.5)
[1]
  Immunogenicity: response ratio of each peptide in five donors: 4/5

## YLATADMPA [CT-X candidate nonamer predicted by POTN, synthesized]
HLA-A2 molecule
  Binding: ++ (FI ≥ 1.5)
[1]
  Immunogenicity: response ratio of each peptide in five donors: 3/5
